# Test results as given in paper PMC7395068, “The evolution of strategies to minimise the risk of human drug-induced liver injury (DILI) in drug discovery and development” (Archives of Toxicology, 2020).
# Where a name gives a salt, the structure may show the parent alone. Read-outs that look alike come from different tables or passages of the source.
# Experiments:
# [1] = cited from earlier work
# [2] = test system: HepG2 cells; settings: In vitro Assay; ref O'Brien 2006; cited from earlier work
# [3] = test system: HepG2 cells; settings: cited from earlier work; for Structural based (HCI): In vitro Assay, ref Tolosa 2012
# [4] = cited from earlier work; remark: listed apart in the source
# [5] = test system: PHH; settings: cited from earlier work
# [6] = test system: HepG2; settings: cited from earlier work
# [7] = test system: human hepatocytes; settings: cited from earlier work
# [8] = test system: PHH spheroids; settings: In vitro Assay; ref Vorrink 2018; cited from earlier work
# [9] = test system: hu-MPCC; settings: cited from earlier work
# [10] = test system: RMPCC's; settings: cited from earlier work
# [11] = Plasma free fraction (fu) and unbound Cmax (Cmax,u); assay type: in vitro ADME, human; settings: unbound plasma Cmax
# Description: The prediction of DILI severity was evaluated further using the 3D combined HCI assays using plasma-free fraction. The majority of fu values were obtained from literature, when unavailable in-house prediction was utilised. Unbound plasma Cmax concentrations (Cmax,u) were derived by multiplying total plasma Cmax with the corresponding free fraction (fu) for each compound.
# [12] = test system: HepG2; design: method as in Albrecht 2019; settings: In vitro Assay; ref Albrecht 2019; cited from earlier work
# [13] = test system: primary human hepatocytes, NIH3T3 fibroblasts, BSEP, CYP3A4; settings: cited from earlier work
# [14] = test system: THLE or HepG2 cells, isolated mitochondria, BSEP; settings: cited from earlier work
# [15] = read-out: Human plasma Cmax; total plasma Cmax.tot, median of 9 literature references; cited from earlier work
# [16] = plasma free fraction; cited from earlier work
# [17] = test system: THLE-Null and THLE-3A4 cells; settings: In vitro Assay; ref Gustafsson 2014; cited from earlier work
# [18] = test system: HepG2 cells, primary human hepatocytes; settings: In vitro Assay; ref Garside 2014; cited from earlier work
# [19] = test system: isolated mouse liver mitochondria; settings: In vitro Assay; ref Porceddu 2012; cited from earlier work
# [20] = test system: Upcyte human hepatocytes; settings: In vitro Assay; ref Tolosa 2019; cited from earlier work
# [21] = ref Chen 2011; cited from earlier work
# [22] = test system: rBsep; settings: In vitro Assay; ref Dawson 2012; cited from earlier work
# [23] = test system: RMPCC's; settings: In vitro Assay; ref Khetani 2012; cited from earlier work
# [24] = test system: hLiMTs; assay: Combined HCI (HCS) and cellular ATP 3D assay in hLiMTs
# [25] = test system: HepaRG spheroids; assay: Combined HCI (HCS) and cellular ATP 3D assay in HepaRG spheroids; settings: for AC50 / minimal effective concentration: Homo sapiens; for DILI prediction HepaRG spheroids (HCS-MEC): Microtissue model structural based (HCI), combined HCS and ATP, MEC < 25 × Cmax.tot cut-off
# [26] = test system: rBsep; design: method as in Dawson 2012; settings: In vitro Assay; ref Dawson 2012; cited from earlier work
# [27] = In vitro Assay, ref Albrecht 2019
# [28] = In vitro Assay, ref Khetani 2012
# [29] = In vitro Assay, ref Schadt 2015
# [30] = Modeled in vitro assays (cytotoxicity, mitochondrial dysfunction, BSEP), ref Aleo et al. 2019
smiles,measurement,setting,value
CC(=O)N[C@@H](CS)C(=O)O [acetylcysteine],"DILI +VE (5-8), DILI -VE (-4)",[1]; ref Chen 2016,-VE
same,DILI severity category,[1]; ref Chen 2016,vNo-DILI-Concern
same,Structural based (HCI),[2],+VE (lowest HCI endpoint IC50 (or in the absence of dose–response < 100 µM) < 30 × total human plasma exposure levels (Cmax.tot))
same,Structural based (HCI),[3],-VE
same,In vivo DILI,[4]; ref Albrecht 2019,-VE
same,In vivo DILI,[4]; ref O'Brien 2006,-VE
same,In vivo DILI,[4]; ref Tolosa 2012,-VE
same,Cytotoxicity PHH 48 hrs,[5]; [27],-VE
same,Cytotoxicity HepG2 48 hrs,[6]; [27],-VE
O=C1O[C@H]([C@@H](O)CO)C(O)=C1O [ascorbic acid],Cytotoxicity PHH 48 hrs,[5]; [27],-VE
same,Cytotoxicity HepG2 48 hrs,[6]; [27],-VE
CNCCc1ccccn1 [betahistine],Structural based (HCI),"[7]; In vitro Assay, ref Xu 2008",-VE
same,hLiMTs ATP <20 x Cmax,[8],-VE
same,In vivo DILI,[4]; ref Khetani 2012,+VE
same,In vivo DILI,[4]; ref Vorrink 2018,+VE
same,In vivo DILI,[4]; ref Xu 2008,+VE
same,HMPCC's,[9]; [28],-VE
same,RMPCC's,[10]; [28],-VE
CCN(CC)CCOc1ccc(C(=C(Cl)c2ccccc2)c2ccccc2)cc1 [clomiphene citrate],Structural based (HCI),"[7]; In vitro Assay, ref Xu 2008",-VE
same,In vivo DILI,[4]; ref Khetani 2012,+VE
same,In vivo DILI,[4]; ref Xu 2008,+VE
same,HMPCC's,[9]; [28],-VE
same,RMPCC's,[10]; [28],-VE
CC(=O)O[C@]1(C(C)=O)CC[C@H]2[C@@H]3C=C(Cl)C4=CC(=O)[C@@H]5C[C@@H]5[C@]4(C)[C@H]3CC[C@@]21C [cyproterone acetate],Structural based (HCI),"[7]; In vitro Assay, ref Xu 2008",-VE
same,In vivo DILI,[4]; […],+VE
same,In vivo DILI,[4]; ref Khetani 2012,+VE
same,In vivo DILI,[4]; ref Xu 2008,+VE
same,HMPCC's,[9]; [28],+VE
same,RMPCC's,[10]; [28],+VE
COc1ccc2c(c1)[C@]13CCCC[C@@H]1[C@H](C2)N(C)CC3 [dextromethorphan],"DILI +VE (5-8), DILI -VE (-4)",[1]; ref Chen 2016,-VE
same,DILI severity category,[1]; ref Chen 2016,vNo-DILI-Concern
same,Structural based (HCI),"[7]; In vitro Assay, ref Xu 2008",-VE
same,In vivo DILI,[4]; ref Khetani 2012,-VE
same,In vivo DILI,[4]; ref Xu 2008,-VE
same,HMPCC's,[9]; [28],-VE
same,RMPCC's,[10]; [28],-VE
C[S+](C)[O-] [dimethylsulfoxide],In vivo DILI,[4]; in vivo,-VE
same,Cytotoxicity PHH 48 hrs,[5],-VE
same,Cytotoxicity HepG2 48 hrs,[6],-VE
CCO [ethanol],Cytotoxicity PHH 48 hrs,[5],+VE
same,Cytotoxicity HepG2 48 hrs,[6],+VE
NC(=O)NO [hydroxyurea],"DILI +VE (5-8), DILI -VE (-4)",[1]; ref Chen 2016,+VE
same,DILI severity category,[1]; ref Chen 2016,vMost-DILI-Concern
same,Structural based (HCI),[7],-VE
same,In vivo DILI,[4]; in vivo,+VE
same,HMPCC's,[9],+VE
same,RMPCC's,[10],+VE
"NNC(=O)c1ccncc1 [isoniazid, reference compound]","Human plasma Cmax,u",[11],74.267 µM
same,Cytotoxicity HepG2 48 hrs,[12],+VE
same,DILI severity category (Chen 2016),"[1]; human DILI classification, LTKB DILIrank, ref Chen et al. 2016",Most
same,DILI severity category,"[1]; human DILI severity, ref Chen et al.",Most
same,"DILI +VE (5-8), DILI -VE (-4)",[1]; ref Chen 2016,+VE
same,DILI severity category,[1]; ref Chen 2016,vMost-DILI-Concern
same,"DILI in vitro assay prediction, Schadt (2015)","[13]; BSEP & Metabolism based, ref Schadt et al. 2015",+VE
same,Cellular toxicity (3T3 cells),[13]; [29],-VE
same,Combined Assay,[13]; [29],+VE
same,GSH adduct HML,[13]; [29],-VE
same,Hepatocyte cellular toxicity,[13]; [29],-VE
same,MitoTox 3T3,[13]; [29],+VE
same,hBSEP inhibition,[13]; [29],-VE
same,Structural based (HCI),[3],+VE
same,"DILI in vitro assay prediction, Tolosa (2012)","[3]; Structural based (HCI), HepG2, ref Tolosa et al. 2012",-VE
same,Structural based (HCI),"[7]; In vitro Assay, ref Xu 2008",-VE
same,"DILI in vitro assay prediction, Xu (2008)","[7]; Structural based (HCI), human hepatocytes, ref Xu et al. 2008",-VE
same,Partition Hybrid HRM Score,"[14]; In vitro Assay, ref Aleo 2019",+VE
same,Ro2 Hybrid HRM Score,"[14]; In vitro Assay, ref Aleo 2019",-VE
same,"Partition Hybrid HRM Score ≥4, Aleo (2019)",[14]; [30],+VE (Partition Hybrid HRM Score ≥4)
same,"Partition Hybrid HRM Score ≥8, Aleo (2019)",[14]; [30],-VE
same,"Rule of Two hybrid HRM Score ≥3, Aleo (2019)",[14]; [30],-VE
same,"Rule of Two hybrid HRM Score ≥8, Aleo (2019)",[14]; [30],-VE
same,Cmax,[15],76.6 µM
same,fu,[16],0.970
same,Assigned DILI category,"[4]; Chen et al. 2016 or literature alignment, ref Chen et al. 2016",3
same,In vivo DILI,[4]; […],+VE
same,In vivo DILI,[4]; ref Albrecht 2019,+VE
same,In vivo DILI,[4]; ref Aleo 2019,+VE
same,In vivo DILI,[4]; ref Dawson 2012,+VE
same,In vivo DILI,[4]; ref Garside 2014,+VE
same,In vivo DILI,[4]; ref Gustafsson 2014,+VE
same,In vivo DILI,[4]; ref Khetani 2012,+VE
same,In vivo DILI,[4]; ref Porceddu 2012,+VE
same,In vivo DILI,[4]; ref Schadt 2015,+VE
same,In vivo DILI,[4]; ref Tolosa 2012,+VE
same,In vivo DILI,[4]; ref Tolosa 2019,+VE
same,In vivo DILI,[4]; ref Xu 2008,+VE
same,Cytotoxicity PHH 48 hrs,[5]; [27],+VE
same,HMPCC's,[9]; [28],+VE
same,THLE-Null,[17],-VE
same,Cluster 1-6 +VE Assay,[18],-VE
same,in vitro data EC2<=1x Cmax,[19],+VE
same,in vitro data EC20<=2uM,[19],-VE
same,Upcytes multi donor assay 14day data,[20],+VE
same,DILI Score (FDA) (1-8),[21],8
same,Inhibition of rBsep cutoff<1& cmax u>.2,[22],-VE
same,Inhibition of rBsep cutoff<3,[22],-VE
same,RMPCC's,[23],-VE
same,DILI prediction hLiMTs (HCS-MEC),"[24]; Microtissue model structural based (HCI), combined HCS and ATP, MEC < 25 × Cmax.tot cut-off",-VE
same,hLiMTs <25x Avg Cmax ATP,"[24]; hLiMTs, ATP endpoint, cut-off <25x Avg Cmax",-ve
same,hLiMTs <100x Avg Cmaxu ATP,"[24]; hLiMTs, ATP endpoint, cut-off <100x Avg Cmaxu",-ve
same,hLiMTs <25x Avg Cmax HCS,"[24]; hLiMTs, HCS endpoints, cut-off <25x Avg Cmax",-ve
same,hLiMTs <100x Avg Cmaxu HCS,"[24]; hLiMTs, HCS endpoints, cut-off <100x Avg Cmaxu",-ve
same,hLiMTs <25x Avg Cmax All,"[24]; hLiMTs, all endpoints (ATP and HCS), cut-off <25x Avg Cmax",-ve
same,hLiMTs Cmax max All,"[24]; hLiMTs, all endpoints, Cmax max used",-ve
same,hLiMTs Cmax min All,"[24]; hLiMTs, all endpoints, Cmax min used",-ve
same,hLiMTs <10 uM All,"[24]; hLiMTs, all endpoints, cut-off <10 uM",-ve
same,hLiMTs <100x Avg Cmaxu All,"[24]; hLiMTs, all endpoints, cut-off <100x Avg Cmaxu",-ve
same,HepaRG <25x Avg Cmax ATP,"[25]; HepaRG, ATP endpoint, cut-off <25x Avg Cmax",+ve
same,HepaRG <100x Avg Cmaxu ATP,"[25]; HepaRG, ATP endpoint, cut-off <100x Avg Cmaxu",+ve (<100x Avg Cmaxu)
same,HepaRG <25x Avg Cmax HCS,"[25]; HepaRG, HCS endpoints, cut-off <25x Avg Cmax",-ve
same,HepaRG <100x Avg Cmaxu HCS,"[25]; HepaRG, HCS endpoints, cut-off <100x Avg Cmaxu",+ve (<100x Avg Cmaxu)
same,HepaRG <25x Avg Cmax All,"[25]; HepaRG, all endpoints (ATP and HCS), cut-off <25x Avg Cmax",+ve
same,HepaRG Cmax max All,"[25]; HepaRG, all endpoints, Cmax max used",+ve
same,HepaRG Cmax min All,"[25]; HepaRG, all endpoints, Cmax min used",-ve
same,HepaRG <10 uM All,"[25]; HepaRG, all endpoints, cut-off <10 uM",-ve
same,HepaRG <100x Avg Cmaxu All,"[25]; HepaRG, all endpoints, cut-off <100x Avg Cmaxu",+ve (<100x Avg Cmaxu)
same,AC50,"[25]; HepaRG, read-out: ATP endpoint AC50",3.52 mM
same,minimal effective concentration,"[25]; HepaRG, read-out: ATP endpoint MEC",1330 µM
same,AC50,"[25]; HepaRG, read-out: HCS endpoint AC50",14 mM
same,minimal effective concentration,"[25]; HepaRG, read-out: HCS endpoint MEC",5790 µM
same,DILI prediction HepaRG spheroids (HCS-MEC),[25],+VE (MEC < 25 × Cmax.tot cut-off)
same,DILI prediction HepaRG spheroids (HCS-MEC),[25]; listed as Isoniazid,positive
COc1ccc2[nH]cc(CCNC(C)=O)c2c1 [melatonin],Structural based (HCI),"[7]; In vitro Assay, ref Xu 2008",-VE
same,Cytotoxicity PHH 48 hrs,[5]; [27],-VE
same,Cytotoxicity HepG2 48 hrs,[6]; [27],-VE
C#CC1(O)CC[C@H]2[C@@H]3CCC4=CC(=O)CC[C@@H]4[C@H]3CC[C@@]21CC (stereo partly drawn) [norgestrel],Structural based (HCI),[7],-VE
same,In vivo DILI,[4]; in vivo,+VE
same,HMPCC's,[9],-VE
same,RMPCC's,[10],-VE
CCCC(CCC)C(=O)O [valproate],Inhibition of rBsep cutoff<1& cmax u>.2,[26],-VE
same,Inhibition of rBsep cutoff<3,[26],-VE
same,Structural based (HCI),[2],+VE (lowest HCI endpoint IC50 (or in the absence of dose–response < 100 µM) < 30 × total human plasma exposure levels (Cmax.tot))
same,Upcytes multi donor assay 14day data,[20],+VE
